Assay results as given in patent US20190094204A1, “MEMBRANE TRANSPORTER ASSAY AND METHODS OF USE” (Howard Hughes Medical Institute, priority 2017, published 2019).
“Also recorded” adds a separate entry of the source.

How the values were obtained:
SLC26a3 = SLC26a3 (Homo sapiens, UniProt P40879); conditions: washout after 10 mM salicylate; HEK-293 cells expressing SLC26a3
EAAT2 [1] = target: T1, EAAT2 (Homo sapiens, UniProt P43004); test: OSTA of EAAT2-mediated glutamate transport (cytosolic iGluSnFR); type: cell-based; conditions: for effect on EAAT2 activity (negative control): 10 mM sodium salicylate, same Na+/K+/glutamate stimulus
T1 construct: expressed in transfected cells; host or cells: HEK-293 (ATCC #CRL-1573)
T1 sequence (P43004 whole entry, species assumed, the tested form may be a part): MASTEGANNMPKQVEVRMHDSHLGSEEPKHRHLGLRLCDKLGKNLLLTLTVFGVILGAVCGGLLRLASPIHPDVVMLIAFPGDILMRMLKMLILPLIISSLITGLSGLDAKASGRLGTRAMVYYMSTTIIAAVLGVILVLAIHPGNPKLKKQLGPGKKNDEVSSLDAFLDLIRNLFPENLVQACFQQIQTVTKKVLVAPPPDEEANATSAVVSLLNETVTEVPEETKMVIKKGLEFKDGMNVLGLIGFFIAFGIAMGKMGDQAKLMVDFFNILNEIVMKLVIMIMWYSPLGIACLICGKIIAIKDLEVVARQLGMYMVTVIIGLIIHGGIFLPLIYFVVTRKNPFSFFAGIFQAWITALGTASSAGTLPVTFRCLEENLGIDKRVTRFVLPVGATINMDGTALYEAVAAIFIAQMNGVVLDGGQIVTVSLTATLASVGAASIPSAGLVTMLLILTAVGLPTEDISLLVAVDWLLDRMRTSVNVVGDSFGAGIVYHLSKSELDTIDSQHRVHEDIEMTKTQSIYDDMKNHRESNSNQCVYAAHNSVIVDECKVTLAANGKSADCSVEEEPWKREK

EAAT2 [2] = target: T1, EAAT2; conditions: EAAT2 inhibitor; Tsukada et al., 2005 Neuropharmacology 48:479-491; cited from earlier work

SLC26a3, sequence (P40879 whole entry, species assumed, the tested form may be a part): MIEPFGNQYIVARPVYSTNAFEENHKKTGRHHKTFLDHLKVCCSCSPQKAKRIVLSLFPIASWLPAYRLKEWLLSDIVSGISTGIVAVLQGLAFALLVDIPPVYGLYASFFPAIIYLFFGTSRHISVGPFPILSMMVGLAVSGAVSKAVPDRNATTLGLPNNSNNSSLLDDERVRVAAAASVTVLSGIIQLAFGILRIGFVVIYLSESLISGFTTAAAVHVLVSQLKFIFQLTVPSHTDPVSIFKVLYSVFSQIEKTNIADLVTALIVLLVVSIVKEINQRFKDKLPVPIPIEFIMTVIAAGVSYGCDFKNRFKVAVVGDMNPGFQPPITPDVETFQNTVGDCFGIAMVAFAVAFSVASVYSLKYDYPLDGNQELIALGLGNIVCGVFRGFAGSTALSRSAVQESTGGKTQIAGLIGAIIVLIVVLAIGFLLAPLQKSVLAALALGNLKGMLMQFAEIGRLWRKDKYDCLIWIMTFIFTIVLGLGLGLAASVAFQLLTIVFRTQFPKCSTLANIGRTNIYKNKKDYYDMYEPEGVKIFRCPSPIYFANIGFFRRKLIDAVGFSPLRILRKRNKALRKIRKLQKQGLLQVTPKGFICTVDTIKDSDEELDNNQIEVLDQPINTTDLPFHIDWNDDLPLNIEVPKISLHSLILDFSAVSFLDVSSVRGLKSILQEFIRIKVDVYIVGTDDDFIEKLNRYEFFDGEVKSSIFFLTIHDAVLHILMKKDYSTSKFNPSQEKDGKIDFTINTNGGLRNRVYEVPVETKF

onset and washout of EAAT2 inhibition (EAAT2 [1]; 2 μM TFB-TBOA)	Compound	oscillating response after washout (SLC26a3)	effect on EAAT2 activity (negative control) (EAAT2 [1]; HEK-293 cells)	effect on EAAT2 activity (negative control) (EAAT2 [1]; HEK-293 cells, listed as sodium salicylate)	IC50 (EAAT2 [2])	effect on EAAT2 glutamate oscillations (EAAT2 [1]; 2 μM TFB-TBOA, combined Na+/K+/glutamate stimulus (0-10 mM glutamate), HEK-293 cells)
	O=C([O-])c1ccccc1O.[Na+] [salicylate, sodium salicylate]	return to the initial oscillating response	relative indifference	no effect on EAAT2 activity		
rapid onset and slower washout	N[C@H](C(=O)O)[C@H](OCc1cccc(NC(=O)c2ccc(C(F)(F)F)cc2)c1)C(=O)O [TFB-TBOA]				~17 nM	complete abrogation of oscillating signal; also recorded: completely abolished the oscillations
